In general, IC50 refers to the point on the concentration scale where inhibition reaches its midpoint.

The text below walks through data of patent publication US20210101881A1 (Ancureall Pharmaceutical (Shanghai) Co., Ltd., priority 2018, published 2021).

Each structure is given as a SMILES string. Some results are limits rather than exact numbers.

The test system of the first test is MOLM13 cells. The test can be described thus: Growth inhibition of CDK9-positive cell line MOLM13 in vitro (CCK8/MTT assay). The class given is cell-based, human. To be noted: Homo sapiens, MOLM-13, read-out: IC50 of the compound for inhibiting cell growth, MOLM13 cells. As to the method:
1. MOLM13 cell line and cell culture MOLM13 is a CDK9-positive human acute myeloid leukemia cell line from DMSZ. Suspension culture was carried out in RPMI1640 (Gibco) medium with 10% fetal bovine serum (Gibco), 1% penicillin-streptomycin and 2 mM glutamine.
Suspended MOLM-13 cells in logarithmic growth phase were collected by centrifugation (1700 rpm, 3 minutes), the supernatant was discarded, and the cells were counted. A solution with a cell concentration of 2×10^5 cells per milliliter was formulated and inoculated in a 96-well plate (Corning) with 100 microliters per well. The plate was incubated at 37° C., 5% CO2 overnight. On the next day, the test compound was added to the cultured cells in two parallel wells. […]
The present compound and the control compounds were respectively dissolved in DMSO (Sigma).
When the solvent control well became dark yellow, the OD450 nm absorption value was measured, and the cell growth rate was calculated according to the following formula. Cell growth rate %=100*(T−T0)/(C−T0), wherein T=the optical density value of the drug-treated well—the optical density value of the blank control well, T0=the optical density value of the well before drug treatment—the optical density value of the blank control well, C=the optical density value of the solvent control well—the optical density value of the blank control well. […] The assay was repeated three times, and the data was subjected to a biological statistical analysis.
Consider `NC(=O)c1cn(-c2ccnc(Nc3ccc(N4CCNCC4)cc3)n2)c2ccccc12` [Compound 27, 1-[2-(4-piperazin-1-yl-phenylamino)-pyrimidin-4-yl]-1H-indole-3-carboxamide], for which the IC50 fell in the range of 1 to 10 nM.

The test is the same for the next values; noted with them: Homo sapiens, MOLM-13; MOLM13 cells, cultured 3 to 6 days, CCK8; read-out: IC50 of the compound for inhibiting cell growth, MOLM13 cells.
Consider `COc1cc(F)ccc1-c1cc(Nc2cc(CS(C)(=N)=O)ccn2)ncc1F` (stereo not shown) [BAY1251125, reference compound], for which the IC50 is 10 to 100 nM.

For the compound `NC(=O)c1cn(-c2nc(Nc3cccc(N4CCN(CC5CCCO5)CC4)c3)ncc2F)c2ccccc12` (stereo not shown) [Compound 160, 1-(5-fluoro-2-{3-[4-(tetrahydro-furan-2-ylmethyl)-piperazin-1-yl]-phenylamino}-pyrimidin-4-yl)-1H-indole-3-carboxamide], the 50% inhibitory concentration (IC50) was in the range of 10 to 100 nM.

As to `CNC(=O)c1cn(-c2ccnc(Nc3ccc(N4CCNCC4)c(Cl)c3)n2)c2ccccc12` [Compound 103, 1-[2-(3-chloro-4-piperazin-1-yl-phenylamino)-pyrimidin-4-yl]-1H-indole-3-carboxmethylamide], the half-maximal inhibitory concentration (IC50) was in the range of 100 to 1000 nM.

Take `Cc1cc(Nc2nccc(-n3cc(C(N)=O)c4ccccc43)n2)ccc1N(C)CCN(C)C` [Compound 79, 1-(2-{4-[(2-dimethylamino-ethyl)-methyl-amino]-3-methyl-phenylamino}-pyrimidin-4-yl)-1H-indole-3-carboxamide]: the half-inhibitory concentration (IC50) lay within 1 to 10 nM.

On to `CN1CCN(CCNc2ccc(Nc3nccc(-n4cc(C(N)=O)c5ccccc54)n3)cc2)CC1` [Compound 11, 1-(2-{4-[2-(4-methyl-piperazin-1-yl)-ethylamino]-phenylamino}-pyrimidin-4-yl)-1H-indole-3-carboxamide], for which the IC50 fell in the range of 10 to 100 nM.

With `NC(=O)c1cn(-c2nc(Nc3cccc(N4CCN(C(=O)C5CCOC5)CC4)c3)ncc2F)c2ccccc12` (stereo not shown) [Compound 170, 1-(5-fluoro-2-{3-[4-(tetrahydro-furan-3-carbonyl)-piperazin-1-yl]-phenylamino}-pyrimidin-4-yl)-1H-indole-3-carboxamide], the IC50 fell in the range of 1 to 10 nM.

`CN(C)CCN(C)c1cccc(Nc2nccc(-n3cc(C(N)=O)c4ccccc43)n2)c1` [Compound 110, 1-(2-{3-[(2-dimethylamino-ethyl)-methyl-amino]-phenylamino}-pyrimidin-4-yl)-1H-indole-3-carboxamide]: the IC50 lay in the range of 1 to 10 nM.

In the case of `CN1CCC(N2CCN(c3cccc(Nc4ncc(F)c(-n5cc(C(N)=O)c6ccccc65)n4)c3)CC2)CC1` [Compound 148, 1-(5-fluoro-2-{3-[4-(1-methyl-piperidin-4-yl)-piperazin-1-yl]-phenylamino}-pyrimidin-4-yl)-1H-indole-3-carboxamide], the IC50 lay within 1 to 10 nM.

`Cc1cc(Nc2nccc(-n3cc(C(N)=O)c4ccccc43)n2)ccc1N1CCNCC1` [Compound 28, 1-[2-(3-methyl-4-piperazin-1-yl-phenylamino)-pyrimidin-4-yl]-1H-indole-3-carboxamide]: the IC50 is 1 to 10 nM.

Turning to `CN1CCC(N2CCN(c3ccc(Nc4nccc(-n5cc(C(N)=O)c6ccccc65)n4)cc3F)CC2)CC1` [Compound 62, 1-(2-{3-fluoro-4-[4-(1-methyl-piperidin-4-yl)-piperazin-1-yl]-phenylamino}-pyrimidin-4-yl)-1H-indole-3-carboxamide], the IC50 lay in the range of 10 to 100 nM.

With `Cc1cc(-n2cc(C(N)=O)c3ccccc32)nc(Nc2ccc(N3CCNCC3)cc2)n1` [Compound 38, 1-[6-methyl-2-(4-piperazin-1-yl-phenylamino)-pyrimidin-4-yl]-1H-indole-3-carboxamide], the IC50 lay in the range of 100 to 1000 nM.

Turning to `NC(=O)c1nn(-c2ccnc(Nc3cccc(N4CCNCC4)c3)n2)c2ccccc12` [Compound 138, 1-[2-(3-piperazin-1-yl-phenylamino)-pyrimidin-4-yl]-1H-indazole-3-carboxamide], the IC50 was 1 to 10 nM.

As for `NC(=O)c1cn(-c2ccnc(Nc3ccc(N4CCC(N5CCCCC5)CC4)cc3)n2)c2ccccc12` [Compound 24, 1-[2-(4-[1,4′]bipiperidin-1′-yl-phenylamino)-pyrimidin-4-yl]-1H-indole-3-carboxamide], the IC50 is 10 to 100 nM.

Take `CNC(=O)c1cn(-c2ccnc(Nc3ccc(S(N)(=O)=O)cc3)n2)c2ccccc12` [Compound 108, 1-[2-(4-sulfamoyl-phenylamino)-pyrimidin-4-yl]-1H-indole-3-carboxmethylamide]: the half-maximal inhibitory concentration (IC50) is greater than 1000 nM.

`CN1CCN(c2ccc(Nc3ncc(Cl)c(-n4cc(C(N)=O)c5ccccc54)n3)cc2)CC1` [Compound 53, 1-{5-chloro-2-[4-(4-methyl-piperazin-1-yl)-phenylamino]-pyrimidin-4-yl}-1H-indole-3-carboxamide]: the IC50 was in the range of 1 to 10 nM.

Regarding `Cc1cc(Nc2ncc(Cl)c(-n3cc(C(N)=O)c4ccccc43)n2)ccc1N(C)CCN1CCCC1` [Compound 97, 1-(5-chloro-2-{3-methyl-4-[methyl-(2-pyrrolidin-1-yl-ethyl)-amino]-phenylamino}-pyrimidin-4-yl)-1H-indole-3-carboxamide], the IC50 is 1 to 10 nM.

Turning to `CN(CCN1CCCC1)c1ccc(Nc2ncc(F)c(-n3cc(C(N)=O)c4ccccc43)n2)cc1` [Compound 93, 1-(5-fluoro-2-{4-[methyl-(2-pyrrolidin-1-yl-ethyl)-amino]-phenylamino}-pyrimidin-4-yl)-1H-indole-3-carboxamide], the IC50 was 1 to 10 nM.

Turning to `NC(=O)c1cn(-c2nc(Nc3cccc(-n4cccn4)c3)ncc2F)c2ccccc12` [Compound 153, 1-[5-fluoro-2-(3-pyrazol-1-yl-phenylamino)-pyrimidin-4-yl]-1H-indole-3-carboxamide], the IC50 was in the range of 100 to 1000 nM.

Regarding `CN(C)CCSc1ccc(Nc2nccc(-n3cc(C(N)=O)c4ccccc43)n2)cc1` [Compound 23, 1-{2-[4-(2-dimethylamino-ethylthio)-phenylamino]-pyrimidin-4-yl}-1H-indole-3-carboxamide], the IC50 fell in the range of 10 to 100 nM.

Consider `CNC(=O)c1cn(-c2ccnc(Nc3ccc(C4CCNCC4)cc3)n2)c2ccccc12` [Compound 105, 1-[2-(4-piperidin-4-yl-phenylamino)-pyrimidin-4-yl]-1H-indole-3-carboxmethylamide], for which the IC50 lay within 10 to 100 nM.

`NC(=O)c1cn(-c2ccnc(Nc3ccc(F)c(Br)c3)n2)c2ccccc12` [Compound 1, 1-[2-(3-bromo-4-fluoro-phenylamino)-pyrimidin-4-yl]-1H-indole-3-carboxamide]: the IC50 is greater than 1000 nM.

Regarding `CC(C)(C)N1CCN(c2cccc(Nc3ncc(F)c(-n4cc(C(N)=O)c5ccccc54)n3)c2)CC1` [Compound 147, 1-{2-[3-(4-tert-butyl-piperazin-1-yl)-phenylamino]-5-fluoro-pyrimidin-4-yl}-1H-indole-3-carboxamide], the IC50 is less than 1 nM.

In the case of `CN(C)CCN(C)c1ccc(Nc2nccc(-n3cc(C(N)=O)c4ccccc43)n2)cc1Cl` [Compound 82, 1-(2-{3-chloro-4-[(2-dimethylamino-ethyl)-methyl-amino]-phenylamino}-pyrimidin-4-yl)-1H-indole-3-carboxamide], the IC50 lay in the range of 10 to 100 nM.

`COc1cc(Nc2ncc(Cl)c(-n3cc(C(N)=O)c4ccccc43)n2)ccc1N1CCNCC1` [Compound 43, 1-[5-chloro-2-(3-methoxy-4-piperazin-1-yl-phenylamino)-pyrimidin-4-yl]-1H-indole-3-carboxamide]: the IC50 is less than 1 nM.
